Experimental data: US11891365B2, “3-alkyl-4-amido-bicyclic [4,5,0] hydroxamic acids as HDAC inhibitors” (Valo Health, Inc., priority 2015, dated 2024)

Molecular target: T1, Full length human recombinant HDAC6 protein (Homo sapiens, UniProt Q9UBN7)
T1 sequence (Q9UBN7 1-1215): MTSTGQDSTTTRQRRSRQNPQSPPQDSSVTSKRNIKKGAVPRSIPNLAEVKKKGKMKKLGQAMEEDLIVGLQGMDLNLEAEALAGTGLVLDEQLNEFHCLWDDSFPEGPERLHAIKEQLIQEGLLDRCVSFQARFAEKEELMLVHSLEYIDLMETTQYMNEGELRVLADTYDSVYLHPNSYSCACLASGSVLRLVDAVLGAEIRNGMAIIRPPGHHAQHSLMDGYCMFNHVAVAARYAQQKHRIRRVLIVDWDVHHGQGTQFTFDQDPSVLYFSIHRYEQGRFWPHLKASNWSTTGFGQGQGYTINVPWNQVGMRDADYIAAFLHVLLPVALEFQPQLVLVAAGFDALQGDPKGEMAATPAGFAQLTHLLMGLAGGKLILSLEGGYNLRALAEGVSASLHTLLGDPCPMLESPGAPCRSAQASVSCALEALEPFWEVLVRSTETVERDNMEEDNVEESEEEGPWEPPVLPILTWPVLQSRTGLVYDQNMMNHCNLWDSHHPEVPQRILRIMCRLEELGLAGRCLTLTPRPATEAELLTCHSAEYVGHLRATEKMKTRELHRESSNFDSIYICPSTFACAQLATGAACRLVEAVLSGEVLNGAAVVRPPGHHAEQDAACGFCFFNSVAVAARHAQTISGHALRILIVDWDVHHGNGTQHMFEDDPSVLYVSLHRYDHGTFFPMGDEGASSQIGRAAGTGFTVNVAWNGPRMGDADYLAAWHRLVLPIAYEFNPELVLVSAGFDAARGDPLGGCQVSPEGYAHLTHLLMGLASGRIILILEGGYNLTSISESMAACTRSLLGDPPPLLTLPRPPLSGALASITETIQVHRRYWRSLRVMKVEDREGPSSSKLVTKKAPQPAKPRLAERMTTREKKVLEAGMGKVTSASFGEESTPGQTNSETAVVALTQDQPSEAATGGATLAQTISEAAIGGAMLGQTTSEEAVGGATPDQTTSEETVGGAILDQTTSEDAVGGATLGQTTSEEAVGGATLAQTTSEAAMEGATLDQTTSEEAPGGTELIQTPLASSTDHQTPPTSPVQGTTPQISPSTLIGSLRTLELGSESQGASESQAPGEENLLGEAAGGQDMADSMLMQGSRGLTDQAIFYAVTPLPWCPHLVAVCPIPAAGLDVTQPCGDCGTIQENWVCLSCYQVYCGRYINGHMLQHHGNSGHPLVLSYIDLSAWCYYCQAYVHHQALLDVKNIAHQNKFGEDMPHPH
Assay: In vitro histone deacetylase assay: enzymatic HDAC6 electrophoretic mobility shift assay
Assay type: biochemical
Details: 1 nM enzyme, 2 μM peptide substrate RHKK(Ac)-NH2, 25° C., 12 concentrations; read-out: Inhibitory Concentration (IC50) Values against HDAC6, Activity Range
Procedure: The enzymatic HDAC6 assay was performed using electrophoretic mobility shift assay. […] The enzymatic reactions were assembled in 384 well plates in a total volume of 25 μL in a reaction buffer composing: 100 mM HEPES, pH7.5, 25 mM KCl, 0.1% bovine serum albumin, 0.01% Triton X-100, 1% DMSO (from compounds) 2 μM of the fluorescently labeled peptide substrate and enzyme. The enzyme was added at a final concentration of 1 nM. The peptide substrate RHKK(Ac)—NH2 was used. The compounds were tested at 12 concentrations spaced by 3× dilution intervals. Negative control samples ([…] in the absence of inhibitor) and positive control samples (100%-inhibition) were assembled in replicates of four in each assay plate. The reactions were incubated at 25° C. and quenched by the addition of 45 μL of termination buffer (100 mM HEPES, pH 7.5, 0.01% Triton X-100, 0.05% SDS).
The terminated assay plates were analyzed on LabChip® 3000 microfluidic electrophoresis instrument (Perkin Elmer/Caliper Life Sciences). The fluorescence intensity of the electrophoretically separated de-acetylated product and substrate peptide was measured. Activity in each sample was determined as the product to sum ratio (PSR): P/(S+P), where P is the peak height of the product peptide and S is the peak height of the substrate peptide. Percent inhibition (Pinh) is determined using the following equation:
Pinh=(PSR0%−PSRinh)/(PSR0%−PSR100%)*100, where PSRinh is the product sum ratio in the presence of inhibitor, PSR0% is the average product sum ration in the absence of inhibitor and PSR100% is the average product sum ratio in 100%-inhibition control samples. The IC50 values of inhibitors were determined by fitting the %-inhibition curves with 4 parameter dose-response model using XLfit 4 software.

SMILES	IC50
C[C@H]1COc2cc(C(=O)NO)ccc2CN1C(=O)[C@@]1(C)CCOC1 [(S)-N-hydroxy-3-methyl-4-((S)-3-methyltetrahydrofuran-3-carbonyl)-2,3,4,5-tetrahydrobenzo[f][1,4]oxazepine-8-carboxamide]	≤ 100 nM
CC(C)[C@@H]1C[C@@H](C(=O)N2Cc3ccc(C(=O)NO)cc3OC[C@@H]2C)CCO1 [(S)-N-hydroxy-4-((2S,4S)-2-isopropyltetrahydro-2H-pyran-4-carbonyl)-3-methyl-2,3,4,5-tetrahydrobenzo[f][1,4]oxazepine-8-carboxamide]	≤ 100 nM
C[C@@H]1COc2cc(C(=O)NO)ccc2CN1C(=O)C1(C)CCC1 [(R)-N-hydroxy-3-methyl-4-(1-methylcyclobutane-1-carbonyl)-2,3,4,5-tetrahydrobenzo[f][1,4]oxazepine-8-carboxamide]	100 to 500 nM
O=C(NO)c1ccc2c(c1)OCCN(C(=O)c1ccc(Oc3ccccc3)cc1)C2 [N-hydroxy-4-(4-phenoxybenzoyl)-2,3,4,5-tetrahydrobenzo[f][1,4]oxazepine-8-carboxamide]	≤ 100 nM
O=C(NO)c1ccc2c(c1)OCCN(C(=O)C(c1ccccc1)C1CCCCC1)C2 (stereo not shown) [4-(2-cyclohexyl-2-phenylacetyl)-N-hydroxy-2,3,4,5-tetrahydrobenzo[f][1,4]oxazepine-8-carboxamide]	> 500 nM
C[C@H]1c2ccc(C(=O)NO)cc2OCCN1C(=O)C1COC1 [(S)-N-hydroxy-5-methyl-4-(oxetane-3-carbonyl)-2,3,4,5-tetrahydrobenzo[f][1,4]oxazepine-8-carboxamide]	≤ 100 nM
O=C(NO)c1ccc2c(c1)OC[C@H](Cc1ccccc1)N(C(=O)C1CCOCC1)C2 [(S)-3-benzyl-N-hydroxy-4-(tetrahydro-2H-pyran-4-carbonyl)-2,3,4,5-tetrahydrobenzo[f][1,4]oxazepine-8-carboxamide]	≤ 100 nM
O=C(NO)c1ccc2c(c1)OCCN(C(=O)c1ccc3[nH]ccc3c1)C2 [N-hydroxy-4-(1H-indole-5-carbonyl)-2,3,4,5-tetrahydrobenzo[f][1,4]oxazepine-8-carboxamide]	≤ 100 nM
O=C(NO)c1ccc2c(c1)OCCN(C(=O)C1(c3cccs3)CC1)C2 [N-hydroxy-4-(1-(thiophen-2-yl)cyclopropane-1-carbonyl)-2,3,4,5-tetrahydrobenzo[f][1,4]oxazepine-8-carboxamide]	≤ 100 nM
O=C(NO)c1ccc2c(c1)OCCN(C(=O)c1ccc3occc3c1)C2 [4-(benzofuran-5-carbonyl)-N-hydroxy-2,3,4,5-tetrahydrobenzo[f][1,4]oxazepine-8-carboxamide]	100 to 500 nM
CC(C)(C(=O)N1CCOc2cc(C(=O)NO)ccc2C1)c1ccc2ccccc2c1 [N-hydroxy-4-(2-methyl-2-(naphthalen-2-yl)propanoyl)-2,3,4,5-tetrahydrobenzo[f][1,4]oxazepine-8-carboxamide]	100 to 500 nM
CC(C)(C(=O)N1CCOc2cc(C(=O)NO)ccc2C1)c1ccc(-c2ccccc2)cc1 [4-(2-([1,1′-biphenyl]-4-yl)-2-methylpropanoyl)-N-hydroxy-2,3,4,5-tetrahydrobenzo[f][1,4]oxazepine-8-carboxamide]	100 to 500 nM
CC(C)(C(=O)N1CCOc2cc(C(=O)NO)ccc2C1)C1CCCCC1 [4-(2-cyclohexyl-2-methylpropanoyl)-N-hydroxy-2,3,4,5-tetrahydrobenzo[f][1,4]oxazepine-8-carboxamide]	100 to 500 nM
COc1ccc(C(=O)N2CC(=O)Nc3ccc(C(=O)NO)cc3C2)cc1 [N-hydroxy-4-(4-methoxybenzoyl)-2-oxo-2,3,4,5-tetrahydro-1H-benzo[e][1,4]diazepine-7-carboxamide]	> 500 nM
CC[C@H]1COc2cc(C(=O)NO)ccc2CN1C(=O)C1CCOCC1 [(S)-3-ethyl-N-hydroxy-4-(tetrahydro-2H-pyran-4-carbonyl)-2,3,4,5-tetrahydrobenzo[f][1,4]oxazepine-8-carboxamide]	≤ 100 nM
CC(C)[C@@H]1CN(C=O)Cc2ccc(C(=O)NO)cc2O1 [(R)-4-formyl-N-hydroxy-2-isopropyl-2,3,4,5-tetrahydrobenzo[f][1,4]oxazepine-8-carboxamide]	100 to 500 nM
CC(C)(C)OC(C(=O)N1CCOc2cc(C(=O)NO)ccc2C1)c1ccccc1 (stereo not shown) [4-(2-(tert-butoxy)-2-phenylacetyl)-N-hydroxy-2,3,4,5-tetrahydrobenzo[f][1,4]oxazepine-8-carboxamide]	100 to 500 nM
CC(C)C(O)(C(=O)N1CCOc2cc(C(=O)NO)ccc2C1)c1ccccc1 (stereo not shown) [N-hydroxy-4-(2-hydroxy-3-methyl-2-phenylbutanoyl)-2,3,4,5-tetrahydrobenzo[f][1,4]oxazepine-8-carboxamide]	> 500 nM
CC1(C(=O)N2CCOc3cc(C(=O)NO)ccc3C2)CCCCC1 [N-hydroxy-4-(1-methylcyclohexane-1-carbonyl)-2,3,4,5-tetrahydrobenzo[f][1,4]oxazepine-8-carboxamide]	≤ 100 nM
CC(=O)N1Cc2ccc(C(=O)NO)cc2OC[C@H]1C [(R)-4-acetyl-N-hydroxy-3-methyl-2,3,4,5-tetrahydrobenzo[f][1,4]oxazepine-8-carboxamide]	> 500 nM
O=CN1CCOc2cc(C(=O)NO)ccc2C1 [4-formyl-N-hydroxy-2,3,4,5-tetrahydrobenzo[f][1,4]oxazepine-8-carboxamide]	≤ 100 nM
COc1ccc(OCC(=O)N2CCOc3cc(C(=O)NO)ccc3C2)cc1 [N-hydroxy-4-(2-(4-methoxyphenoxy)acetyl)-2,3,4,5-tetrahydrobenzo[f][1,4]oxazepine-8-carboxamide]	≤ 100 nM
CC(C)(C)OC(=O)N1CCC2(CCC(C(=O)N3CCOc4cc(C(=O)NO)ccc4C3)CC2)CC1 [tert-butyl 9-(8-(hydroxycarbamoyl)-2,3,4,5-tetrahydrobenzo[f][1,4]oxazepine-4-carbonyl)-3-azaspiro[5.5]undecane-3-carboxylate]	100 to 500 nM
C[C@H]1COc2cc(C(=O)NO)ccc2CN1C(=O)c1ccc(F)cc1 [(S)-4-(4-fluorobenzoyl)-N-hydroxy-3-methyl-2,3,4,5-tetrahydrobenzo[f][1,4]oxazepine-8-carboxamide]	≤ 100 nM
C[C@H]1COc2cc(C(=O)NO)ccc2CN1C(=O)[C@@H]1CCOC(C)(C)C1 [(S)-4-((R)-2,2-dimethyltetrahydro-2H-pyran-4-carbonyl)-N-hydroxy-3-methyl-2,3,4,5-tetrahydrobenzo[f][1,4]oxazepine-8-carboxamide]	≤ 100 nM
C[C@@H](C(=O)N1CCOc2cc(C(=O)NO)ccc2C1)c1ccccc1 [(R)-N-hydroxy-4-(2-phenylpropanoyl)-2,3,4,5-tetrahydrobenzo[f][1,4]oxazepine-8-carboxamide]	> 500 nM
COC(C)(C)C(=O)N1Cc2ccc(C(=O)NO)cc2OC[C@@H]1C [(S)-N-hydroxy-4-(2-methoxy-2-methylpropanoyl)-3-methyl-2,3,4,5-tetrahydrobenzo[f][1,4]oxazepine-8-carboxamide]	≤ 100 nM
CC(C)(C)OC(=O)N1CC2(CC(C(=O)N3CCOc4cc(C(=O)NO)ccc4C3)CO2)C1 (stereo not shown) [tert-butyl 7-(8-(hydroxycarbamoyl)-2,3,4,5-tetrahydrobenzo[f][1,4]oxazepine-4-carbonyl)-5-oxa-2-azaspiro[3.4]octane-2-carboxylate]	100 to 500 nM
